From US20060008574A1, “Galactosyl isomalt, method for production and use thereof” (priority 2002, published 2006)

Legend:
Experiment in all cases: Fermentation by human bifidobacteria
Assay type in all cases: cell-based
Design in all cases: key: −: no decomposition; +: decomposition and metabolization of galactose from β-1,3-galactosyl isomalt; ++: decomposition and metabolization of galactose and glucose from β-1,3-galactosyl isomalt; +++: complete decomposition of β-1,3-galcatosyl isomalt
Conditions in all cases: medium 2, 48 h
[1] = tested on: B. adolescentis DSM 20083
Protocol: (§1) To investigate the prebiotic and bifidogenic properties of galactosyl isomalt, the growth of various human bifidobacteria was investigated on this substrate in vitro. An anaerobic medium of the following composition was used:
(§2) 22 strains of human bifidobacteria were first precultured in “Hungate” test tubes on the above medium 1, in which the source of carbohydrate had first been replaced by glucose (10 g/L). The strains were then inoculated onto medium 2, incubated for 48 h, and then the optical density (E578), the pH, the formation of acetate and lactate and the decrease of the β-1,3-galactosyl isomalt concentration were determined.
(§3) Various decomposition paths are distinguished with regard to the metabolization of galactosyl isomalt. Some strains degrade galactose from the substrate with a β-galactosidase and metabolize this monosaccharide (+).
(§4) Other strains additionally degrade glucose from the resulting isomalt, in addition to galactose, metabolize both monosaccharides, while this is not true for the resulting mannitol or sorbitol (++). The third group is capable of utilizing galactosyl isomalt as a substrate and also metabolizing mannitol and sorbitol (+++).

[2] = tested on: B. adolescentis DSM 20086
Protocol: as §1, §2, §3, §4

B. angulatum DSM 20098 = tested on: B. angulatum DSM 20098
Protocol: as §1, §2, §3, §4

B. angulatum DSM 20225 = tested on: B. angulatum DSM 20225
Protocol: as §1, §2, §3, §4

B. bifidum DSM 20239 = tested on: B. bifidum DSM 20239
Protocol: as §1, §2, §3, §4

B. bifidum DSM 20456 = tested on: B. bifidum DSM 20456
Protocol: as §1, §2, §3, §4

B. breve DSM 20091 = tested on: B. breve DSM 20091
Protocol: as §1, §2, §3, §4

B. breve DSM 20213 = tested on: B. breve DSM 20213
Protocol: as §1, §2, §3, §4

B. catenulatum DSM 20103 = tested on: B. catenulatum DSM 20103
Protocol: as §1, §2, §3, §4

B. catenulatum DSM 20224 = tested on: B. catenulatum DSM 20224
Protocol: as §1, §2, §3, §4

B. gallicum DSM 20093 = tested on: B. gallicum DSM 20093
Protocol: as §1, §2, §3, §4

B. infantis DSM 20088 = tested on: B. infantis DSM 20088
Protocol: as §1, §2, §3, §4

B. infantis DSM 20090 = tested on: B. infantis DSM 20090
Protocol: as §1, §2, §3, §4

B. infantis DSM 20218 = tested on: B. infantis DSM 20218
Protocol: as §1, §2, §3, §4

B. longum DSM 20097 = tested on: B. longum DSM 20097
Protocol: as §1, §2, §3, §4

B. longum DSM 20219 = tested on: B. longum DSM 20219
Protocol: as §1, §2, §3, §4

[3] = tested on: B. pseudocatenulatum DSM 20438
Protocol: as §1, §2, §3, §4

Measured: Growth on β-1,3-galactosyl isomalt

OCC1O[C@H](OC[C@@H](O)[C@@H](O)[C@H](O)C(O)CO)C(O)C(O[C@@H]2OC(CO)[C@H](O)C(O)C2O)[C@@H]1O (mixture of isomers) [β-1,3-Galactosyl isomalt, β-D-galactosyl-(1→3)-α-D-glucosyl-(1→6)-D-sorbitol(β-1,3-galactosyl-1,6-GPS) and β-D-galactosyl-(1→3)-α-D-glucosyl-(1→1)-D-mannitol(β-1,3-galactosyl-1,1-GPM)]
+++: [1] | [2] | B. longum DSM 20219
−: B. bifidum DSM 20456 | B. gallicum DSM 20093 | B. infantis DSM 20218
+: B. bifidum DSM 20239 | B. breve DSM 20091 | B. breve DSM 20213
++: all other assays above
